# Laboratory results from ChEMBL document CHEMBL3797052 (Eur J Med Chem, 2016).
# Columns and labels:
# [1] = Antiproliferative activity against human HCC2998 cells assessed as cell growth at 10^-4 M after 48 hrs by sulforhodamine B assay; assay type: functional; settings: HCC 2998, 48 h, read-out: Activity
# [2] = Antiproliferative activity against human HOP92 cells assessed as cell growth at 10^-6 M after 48 hrs by sulforhodamine B assay; assay type: functional; settings: HOP-92, 48 h, read-out: Activity
# CYP2D6 = CYP2D6 (Homo sapiens, UniProt P10635); experiment: Inhibition of recombinant human CYP2D6 assessed as remaining enzyme activity using CYP2D6 blue as substrate at 10 uM after 5 mins in presence of NADP by fluorescence plate reader analysis; assay type: ADME; settings: recombinant human CYP2D6, probe CYP2D6 blue, read-out: Activity
# Sequence of CYP2D6 (P10635 whole entry): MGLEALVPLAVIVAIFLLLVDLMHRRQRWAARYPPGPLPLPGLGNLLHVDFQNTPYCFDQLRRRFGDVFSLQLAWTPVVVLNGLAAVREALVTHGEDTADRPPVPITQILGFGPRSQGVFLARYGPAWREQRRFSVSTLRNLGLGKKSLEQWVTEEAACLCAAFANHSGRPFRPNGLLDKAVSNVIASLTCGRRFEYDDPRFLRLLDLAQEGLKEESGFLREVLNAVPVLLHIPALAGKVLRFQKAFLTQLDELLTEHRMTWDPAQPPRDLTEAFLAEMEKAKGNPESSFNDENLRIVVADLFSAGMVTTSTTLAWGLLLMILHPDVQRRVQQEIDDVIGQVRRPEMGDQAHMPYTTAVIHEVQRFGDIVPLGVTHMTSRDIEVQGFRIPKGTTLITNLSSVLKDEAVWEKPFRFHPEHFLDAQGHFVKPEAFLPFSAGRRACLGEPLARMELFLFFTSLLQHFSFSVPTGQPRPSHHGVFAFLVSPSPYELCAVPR
# 786-0 = experiment: Antiproliferative activity against human 786-0 cells assessed as cell growth at 10^-6 M after 48 hrs by sulforhodamine B assay; assay type: functional; settings: 786-0, 48 h, read-out: Activity
# [3] = Antiproliferative activity against human SF268 cells assessed as cell growth at 10^-7 M after 48 hrs by sulforhodamine B assay; assay type: functional; settings: SF-268, 48 h, read-out: Activity
# NCI-H226 = experiment: Antiproliferative activity against human NCI-H226 cells assessed as cell growth at 10^-4 M after 48 hrs by sulforhodamine B assay; assay type: functional; settings: NCI-H226, 48 h, read-out: Activity
# ACHN = experiment: Antiproliferative activity against human ACHN cells assessed as cell growth at 10^-8 M after 48 hrs by sulforhodamine B assay; assay type: functional; settings: read-out: Activity
# [4] = Antiproliferative activity against human SF268 cells assessed as cell growth at 10^-6 M after 48 hrs by sulforhodamine B assay; assay type: functional; settings: SF-268, 48 h, read-out: Activity
# CYP3A4 = CYP3A4 (Homo sapiens, UniProt P08684); experiment: Inhibition of recombinant human CYP3A4 assessed as remaining enzyme activity using CYP3A4 blue as substrate at 10 uM after 5 mins in presence of NADP by fluorescence plate reader analysis; assay type: ADME; settings: recombinant human CYP3A4, probe CYP3A4 blue, read-out: Activity
# Sequence of CYP3A4 (P08684 whole entry): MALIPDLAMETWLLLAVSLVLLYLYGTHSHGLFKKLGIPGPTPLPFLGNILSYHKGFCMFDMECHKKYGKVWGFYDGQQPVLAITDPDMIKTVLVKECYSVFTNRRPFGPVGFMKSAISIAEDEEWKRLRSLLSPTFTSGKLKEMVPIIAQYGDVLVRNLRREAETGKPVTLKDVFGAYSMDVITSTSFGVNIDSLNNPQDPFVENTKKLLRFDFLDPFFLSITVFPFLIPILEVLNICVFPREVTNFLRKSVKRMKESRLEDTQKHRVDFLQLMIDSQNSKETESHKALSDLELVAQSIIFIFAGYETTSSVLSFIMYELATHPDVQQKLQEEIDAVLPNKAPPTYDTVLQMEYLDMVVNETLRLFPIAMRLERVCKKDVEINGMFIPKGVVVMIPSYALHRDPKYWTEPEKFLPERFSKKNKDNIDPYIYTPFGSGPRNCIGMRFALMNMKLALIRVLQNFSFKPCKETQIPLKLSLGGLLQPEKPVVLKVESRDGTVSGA
# MDA-MB-435 = experiment: Antiproliferative activity against human MDA-MB-435 cells assessed as growth inhibition after 48 hrs by sulforhodamine B assay; assay type: functional; settings: MDA-MB-435, 48 h; for CC50: read-out: LC50 (the source's name)
# [5] = Antiproliferative activity against human SNB75 cells assessed as cell growth at 10^-8 M after 48 hrs by sulforhodamine B assay; assay type: functional; settings: SNB-75, 48 h, read-out: Activity
# [6] = Antiproliferative activity against human TK10 cells assessed as growth inhibition after 48 hrs by sulforhodamine B assay; assay type: functional; settings: TK-10, 48 h; for CC50: read-out: LC50 (the source's name)
# [7] = Antiproliferative activity against human HCT15 cells assessed as cell growth at 10^-7 M after 48 hrs by sulforhodamine B assay; assay type: functional; settings: HCT-15, 48 h, read-out: Activity
# HT-29 [8] = experiment: Antiproliferative activity against human HT-29 cells assessed as cell growth at 10^-7 M after 48 hrs by sulforhodamine B assay; assay type: functional; settings: HT-29, 48 h, read-out: Activity
# EKVX = experiment: Antiproliferative activity against human EKVX cells assessed as cell growth at 10^-7 M after 48 hrs by sulforhodamine B assay; assay type: functional; settings: read-out: Activity
# SK-MEL-28 = experiment: Antiproliferative activity against human SK-MEL-28 cells assessed as cell growth at 10^-4 M after 48 hrs by sulforhodamine B assay; assay type: functional; settings: SK-MEL-28, 48 h, read-out: Activity
# [9] = Antiproliferative activity against human OVCAR3 cells assessed as growth inhibition after 48 hrs by sulforhodamine B assay; assay type: functional; settings: OVCAR-3, 48 h
# [10] = Antiproliferative activity against human IGROV1 cells assessed as cell growth at 10^-7 M after 48 hrs by sulforhodamine B assay; assay type: functional; settings: IGROV-1, 48 h, read-out: Activity
# [11] = Antiproliferative activity against human HOP62 cells assessed as cell growth at 10^-4 M after 48 hrs by sulforhodamine B assay; assay type: functional; settings: HOP-62, 48 h, read-out: Activity
# U-251 [12] = experiment: Antiproliferative activity against human U251 cells assessed as cell growth at 10^-4 M after 48 hrs by sulforhodamine B assay; assay type: functional; settings: U-251, 48 h, read-out: Activity
# U-251 [13] = experiment: Antiproliferative activity against human U251 cells assessed as cell growth at 10^-8 M after 48 hrs by sulforhodamine B assay; assay type: functional; settings: U-251, 48 h, read-out: Activity
# [14] = Antiproliferative activity against human Caki1 cells assessed as cell growth at 10^-8 M after 48 hrs by sulforhodamine B assay; assay type: functional; settings: CAKI-1, 48 h, read-out: Activity
# [15] = Antiproliferative activity against human OVCAR4 cells assessed as cell growth at 10^-6 M after 48 hrs by sulforhodamine B assay; assay type: functional; settings: OVCAR-4, 48 h, read-out: Activity
# [16] = Antiproliferative activity against human OVCAR4 cells assessed as cell growth at 10^-8 M after 48 hrs by sulforhodamine B assay; assay type: functional; settings: OVCAR-4, 48 h, read-out: Activity
# [17] = Antiproliferative activity against human RPMI8226 cells assessed as growth inhibition after 48 hrs by sulforhodamine B assay; assay type: functional; settings: RPMI-8226, 48 h
# [18] = Antiproliferative activity against human RPMI8226 cells assessed as cell growth at 10^-6 M after 48 hrs by sulforhodamine B assay; assay type: functional; settings: RPMI-8226, 48 h, read-out: Activity
# A498 = experiment: Antiproliferative activity against human A498 cells assessed as growth inhibition after 48 hrs by sulforhodamine B assay; assay type: functional; settings: A498, 48 h
# A549 = experiment: Antiproliferative activity against human A549/ATCC cells assessed as cell growth at 10^-6 M after 48 hrs by sulforhodamine B assay; assay type: functional; settings: A549, 48 h, read-out: Activity
# NCI-H23 = experiment: Antiproliferative activity against human NCI-H23 cells assessed as growth inhibition after 48 hrs by sulforhodamine B assay; assay type: functional; settings: NCI-H23, 48 h
# MDA-MB-468 = experiment: Antiproliferative activity against human MDA-MB-468 cells assessed as cell growth at 10^-7 M after 48 hrs by sulforhodamine B assay; assay type: functional; settings: MDA-MB-468, 48 h, read-out: Activity
# HT-29 [19] = experiment: Antiproliferative activity against human HT-29 cells assessed as cell growth at 10^-6 M after 48 hrs by sulforhodamine B assay; assay type: functional; settings: HT-29, 48 h, read-out: Activity
# [20] = Antiproliferative activity against human OVCAR3 cells assessed as cell growth at 10^-4 M after 48 hrs by sulforhodamine B assay; assay type: functional; settings: OVCAR-3, 48 h, read-out: Activity
# [21] = Antiproliferative activity against human DU145 cells assessed as cell growth at 10^-4 M after 48 hrs by sulforhodamine B assay; assay type: functional; settings: DU-145, 48 h, read-out: Activity
# MCF7 = experiment: Antiproliferative activity against human MCF7 cells assessed as cell growth at 10^-4 M after 48 hrs by sulforhodamine B assay; assay type: functional; settings: MCF7, 48 h, read-out: Activity
structure (smiles),measurement,setting,value
CNC(=O)c1cc(Oc2ccc3nc(NC(=O)Nc4ccc(Cl)c(C(F)(F)F)c4)sc3c2)ccn1,growth at 100 µM,[1],66%
same,growth at 1 µM,[2],57%
same,"activity at 5 min, 10 µM",CYP2D6,98.7%
same,growth at 1 µM,786-0,95%
same,growth at 0.1 µM,[3],101%
same,growth at 100 µM,NCI-H226,-25%
same,growth at 0.01 µM,ACHN,97%
same,growth at 1 µM,[4],78%
same,"activity at 5 min, 10 µM",CYP3A4,105%
same,GI50,MDA-MB-435,1900 nM
same,CC50,MDA-MB-435,> 100000 nM
same,growth at 0.01 µM,[5],79%
same,GI50,[6],2290 nM
same,TGI,[6],4620 nM
same,CC50,[6],9320 nM
same,growth at 0.1 µM,[7],96%
same,growth at 0.1 µM,HT-29 [8],103%
same,growth at 0.1 µM,EKVX,94%
same,growth at 100 µM,SK-MEL-28,38%
same,GI50,[9],2110 nM
same,TGI,[9],4020 nM
same,growth at 0.1 µM,[10],97%
same,growth at 100 µM,[11],-34%
same,growth at 100 µM,U-251 [12],-34%
same,growth at 0.01 µM,U-251 [13],102%
same,growth at 0.01 µM,[14],87%
same,growth at 1 µM,[15],82%
same,growth at 0.01 µM,[16],93%
same,GI50,[17],2220 nM
same,LC50,[17],> 100000 nM
same,growth at 1 µM,[18],82%
same,GI50,A498,2490 nM
same,LC50 (concentration killing 50% of cells),A498,> 100000 nM
same,TGI,A498,12200 nM
same,growth at 1 µM,A549,90%
same,GI50,NCI-H23,2480 nM
same,LC50,NCI-H23,> 100000 nM
same,TGI,NCI-H23,8170 nM
same,growth at 0.1 µM,MDA-MB-468,85%
same,growth at 1 µM,HT-29 [19],91%
same,growth at 100 µM,[20],-14%
same,growth at 100 µM,[21],17%
CNC(=O)c1cc(Oc2ccc3nc(NC(=O)Nc4cc(C(F)(F)F)cc(C(F)(F)F)c4)sc3c2)ccn1,growth at 100 µM,[1],-74%
same,growth at 1 µM,[2],-2%
same,"activity at 5 min, 10 µM",CYP2D6,91.5%
same,growth at 1 µM,786-0,75%
same,growth at 0.1 µM,[3],90%
same,growth at 100 µM,NCI-H226,-52%
same,growth at 0.01 µM,ACHN,94%
same,growth at 100 µM,MCF7,-55%
same,growth at 1 µM,[4],65%
same,"activity at 5 min, 10 µM",CYP3A4,50.6%
same,GI50,MDA-MB-435,1040 nM
same,TGI,MDA-MB-435,2700 nM
same,CC50,MDA-MB-435,6990 nM
same,growth at 0.01 µM,[5],77%
same,GI50,[6],1670 nM
same,TGI,[6],3350 nM
same,CC50,[6],6720 nM
same,growth at 0.1 µM,[7],100%
same,growth at 0.1 µM,HT-29 [8],97%
same,growth at 0.1 µM,EKVX,92%
same,growth at 100 µM,SK-MEL-28,-70%
same,GI50,[9],1030 nM
same,LC50,[9],5040 nM
same,TGI,[9],2270 nM
same,growth at 0.1 µM,[10],89%
same,growth at 100 µM,[11],-76%
same,growth at 100 µM,U-251 [12],-100%
same,growth at 0.01 µM,U-251 [13],103%
same,growth at 0.01 µM,[14],91%
same,growth at 1 µM,[15],49%
same,growth at 0.01 µM,[16],88%
same,GI50,[17],1020 nM
same,LC50,[17],76300 nM
same,TGI,[17],3810 nM
same,growth at 1 µM,[18],51%
same,GI50,A498,1020 nM
same,LC50 (concentration killing 50% of cells),A498,5970 nM
same,TGI,A498,2470 nM
same,growth at 1 µM,A549,68%
same,GI50,NCI-H23,573 nM
same,LC50,NCI-H23,7990 nM
same,TGI,NCI-H23,2380 nM
same,growth at 0.1 µM,MDA-MB-468,91%
same,growth at 1 µM,HT-29 [19],61%
same,growth at 100 µM,[20],-89%
same,growth at 100 µM,[21],-89%
